Experimental data: ChEMBL document CHEMBL1201862, “PubChem BioAssay data set” (2004)
Active and inactive are the calls of the source.

How the values were obtained:
Trypsin = Trypsin (Sus scrofa, UniProt P00761); test: trypsin protease activity blockade – biochemical, quenched peptide fluorescence, cherry-pick, selectivity assay for Rce1 protease inhibitor project, dose response (AID 488789)
CAAX prenyl protease 2 = target: T1, CAAX prenyl protease 2 (Homo sapiens, UniProt Q9Y256); test: inhibition of Ras-converting CAAX protease Rce1 – biochemical, yeast membranes, quenched-peptide fluorescence, cherry-pick, dose response (AID 588849)
T1 sequence (Q9Y256 whole entry): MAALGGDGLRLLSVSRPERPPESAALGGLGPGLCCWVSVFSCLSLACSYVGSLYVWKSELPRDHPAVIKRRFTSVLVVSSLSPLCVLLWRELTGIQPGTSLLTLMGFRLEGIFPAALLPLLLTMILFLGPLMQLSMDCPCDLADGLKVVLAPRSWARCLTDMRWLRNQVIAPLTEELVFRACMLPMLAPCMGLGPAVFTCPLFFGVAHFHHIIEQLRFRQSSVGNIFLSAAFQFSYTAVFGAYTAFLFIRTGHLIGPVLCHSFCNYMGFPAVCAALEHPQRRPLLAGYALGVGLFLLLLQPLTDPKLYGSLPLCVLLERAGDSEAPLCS

BJ = test: growth inhibition of engineered Ras-driven BJ cells – cell-based, alamar blue fluorescence, cherrypicked samples, dose response (AID 2631); format: functional; details: Homo sapiens;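 further: confirmatory dose-response assay in RAS-dependent BJ fibroblasts engineered with TERT, LT and ST, with cytotoxicity read by fluorescence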
INS1 = test: INS-1E survival protection against cytokine death – cell-based, luminescence, retest, dose response (AID 449756); format: functional; details: Rattus norvegicus;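 further: cell death triggered by IL-1 beta plus TNF-alpha plus IFN-gamma mixture; protective hits raise ATP signal compared with cytokine alone wells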
[1] = target: 5-hydroxytryptamine receptor 5A (Homo sapiens, UniProt P47898); test: Counterscreen for agonists of OPRM1-OPRD1 heterodimerization: luminescence-based cell-based high throughput dose response assay to identify agonists of 5-hydroxytryptamine (serotonin) 5A receptor (HTR5A). [Related pubchem assays (depositor defined):AID504326, AID504355, AID504692, AID504904, AID504905]; format: functional
Mu-type opioid receptor = Mu-type opioid receptor (Homo sapiens, UniProt P35372); test: (§1) Counterscreen for agonists of heterodimerization of the mu 1 (OPRM1) and delta 1 (OPRD1) opioid receptors: Luminescence-based cell-based high throughput dose response assay to identify agonists of OPRM1 homodimerization.; format: functional
[2] = target: T2, Short transient receptor potential channel 4 (Mus musculus, UniProt Q9QUQ5); test: calcium entry via TRPC4 opening agents – cell-based, HEK293 TRPC4/mu-opioid, Fluo-4 calcium, dose response (AID 434937); format: functional
T2 sequence (Q9QUQ5 whole entry): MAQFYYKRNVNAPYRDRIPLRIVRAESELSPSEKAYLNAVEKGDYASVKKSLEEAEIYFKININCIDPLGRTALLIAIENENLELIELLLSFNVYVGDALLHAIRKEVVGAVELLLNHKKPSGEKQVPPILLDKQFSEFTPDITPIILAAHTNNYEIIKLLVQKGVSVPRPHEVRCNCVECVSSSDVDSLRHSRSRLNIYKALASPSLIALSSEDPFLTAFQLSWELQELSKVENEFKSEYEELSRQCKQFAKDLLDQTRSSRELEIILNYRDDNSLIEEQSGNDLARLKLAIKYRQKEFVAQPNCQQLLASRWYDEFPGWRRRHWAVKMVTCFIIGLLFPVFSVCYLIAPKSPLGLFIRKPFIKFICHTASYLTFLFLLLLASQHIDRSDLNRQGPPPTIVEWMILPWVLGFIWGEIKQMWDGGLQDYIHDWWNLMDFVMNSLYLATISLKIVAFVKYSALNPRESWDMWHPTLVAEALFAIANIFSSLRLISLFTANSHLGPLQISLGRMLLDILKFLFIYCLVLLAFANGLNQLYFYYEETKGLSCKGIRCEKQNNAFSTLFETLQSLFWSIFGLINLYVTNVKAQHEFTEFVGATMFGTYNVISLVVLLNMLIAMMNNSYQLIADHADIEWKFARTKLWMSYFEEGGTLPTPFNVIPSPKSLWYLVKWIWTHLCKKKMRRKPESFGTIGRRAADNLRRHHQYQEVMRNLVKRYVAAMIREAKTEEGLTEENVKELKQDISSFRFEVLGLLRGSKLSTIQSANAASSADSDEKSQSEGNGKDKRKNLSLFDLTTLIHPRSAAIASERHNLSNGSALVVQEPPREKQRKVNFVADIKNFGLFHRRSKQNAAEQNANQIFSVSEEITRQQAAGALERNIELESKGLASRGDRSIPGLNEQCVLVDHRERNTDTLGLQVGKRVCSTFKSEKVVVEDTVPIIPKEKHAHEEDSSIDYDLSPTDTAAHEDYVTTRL

[3] = target: Delta-type opioid receptor (Homo sapiens, UniProt P41143); test: as §1, with “of OPRD1” for “of OPRM1”, “homodimerization. [Related pubchem assays (depositor defined):AID504326, AID504355, AID504692, AID504904, AID504905]” for “homodimerization.”; format: functional
Caspase-3 = target: T3, Caspase-3 (Homo sapiens, UniProt P42574); test: SAR Analysis of small molecule inhibitors of Sentrin-specific proteases (SENPs) using a Caspase-3 Selectivity assay. [Related pubchem assays (depositor defined):AID2540, AID2599, AID434973, AID489001]; format: functional
T3 sequence (P42574 whole entry): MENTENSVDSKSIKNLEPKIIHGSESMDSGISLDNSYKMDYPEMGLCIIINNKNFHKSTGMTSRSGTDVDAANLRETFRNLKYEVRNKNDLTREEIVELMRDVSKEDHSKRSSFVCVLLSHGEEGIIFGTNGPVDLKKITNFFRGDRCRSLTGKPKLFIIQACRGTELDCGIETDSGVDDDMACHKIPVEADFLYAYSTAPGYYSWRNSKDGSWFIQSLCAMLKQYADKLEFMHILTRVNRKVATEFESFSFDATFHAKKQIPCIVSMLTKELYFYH

[4] = target: T4, Sentrin-specific protease 6 (Homo sapiens, UniProt Q9GZR1); test: SAR Analysis of small molecule inhibitors of Sentrin-specific protease 6 (SENP6) using a Luminescent assay. [Related pubchem assays (depositor defined):AID2582, AID2599]; format: functional
T4 sequence (Q9GZR1 whole entry): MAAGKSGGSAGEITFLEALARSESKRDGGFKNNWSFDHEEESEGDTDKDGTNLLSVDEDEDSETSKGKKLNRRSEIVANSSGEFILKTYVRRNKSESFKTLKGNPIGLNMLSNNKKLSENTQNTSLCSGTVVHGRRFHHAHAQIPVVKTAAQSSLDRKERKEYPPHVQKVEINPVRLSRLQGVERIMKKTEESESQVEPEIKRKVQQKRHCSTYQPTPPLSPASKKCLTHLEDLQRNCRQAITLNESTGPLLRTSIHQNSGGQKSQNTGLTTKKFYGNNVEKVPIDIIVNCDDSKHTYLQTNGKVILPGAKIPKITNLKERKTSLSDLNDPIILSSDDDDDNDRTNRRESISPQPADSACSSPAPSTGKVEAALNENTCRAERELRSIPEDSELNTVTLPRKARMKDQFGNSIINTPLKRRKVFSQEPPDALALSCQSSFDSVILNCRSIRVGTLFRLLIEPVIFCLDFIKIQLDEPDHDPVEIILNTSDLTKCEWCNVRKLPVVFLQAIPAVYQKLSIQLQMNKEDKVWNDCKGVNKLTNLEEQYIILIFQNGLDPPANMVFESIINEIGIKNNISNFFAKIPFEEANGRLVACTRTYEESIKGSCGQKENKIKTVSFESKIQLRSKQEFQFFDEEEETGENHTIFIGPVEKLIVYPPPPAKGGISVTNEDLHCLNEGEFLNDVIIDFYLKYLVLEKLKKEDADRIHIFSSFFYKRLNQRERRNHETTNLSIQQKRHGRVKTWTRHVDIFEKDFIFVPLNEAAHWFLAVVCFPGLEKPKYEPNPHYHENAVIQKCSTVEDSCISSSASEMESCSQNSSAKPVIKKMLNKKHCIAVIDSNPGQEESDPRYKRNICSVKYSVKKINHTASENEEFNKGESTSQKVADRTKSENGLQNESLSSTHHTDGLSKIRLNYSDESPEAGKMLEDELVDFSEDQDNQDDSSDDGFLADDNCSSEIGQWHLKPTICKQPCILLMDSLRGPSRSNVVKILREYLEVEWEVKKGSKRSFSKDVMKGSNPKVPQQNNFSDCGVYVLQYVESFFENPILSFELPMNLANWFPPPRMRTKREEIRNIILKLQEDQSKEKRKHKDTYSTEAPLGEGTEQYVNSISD

[5] = target: T5, Sentrin-specific protease 8 (Homo sapiens, UniProt Q96LD8); test: inhibition of human SENP8 cleavage activity – biochemical, luminescence, SAR follow-up (AID 504501); format: functional
T5 sequence (Q96LD8 whole entry): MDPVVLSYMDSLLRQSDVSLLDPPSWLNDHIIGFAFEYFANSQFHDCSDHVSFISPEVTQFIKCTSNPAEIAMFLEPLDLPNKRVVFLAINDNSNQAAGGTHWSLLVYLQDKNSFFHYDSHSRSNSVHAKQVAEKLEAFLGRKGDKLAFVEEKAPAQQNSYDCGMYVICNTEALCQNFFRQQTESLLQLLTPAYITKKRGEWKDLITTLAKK

[6] = target: T6, Sentrin-specific protease 7 (Homo sapiens, UniProt Q9BQF6); test: inhibition of human SENP7 cleavage activity – biochemical, luminescence, SAR follow-up (AID 504497); format: functional
T6 sequence (Q9BQF6 whole entry): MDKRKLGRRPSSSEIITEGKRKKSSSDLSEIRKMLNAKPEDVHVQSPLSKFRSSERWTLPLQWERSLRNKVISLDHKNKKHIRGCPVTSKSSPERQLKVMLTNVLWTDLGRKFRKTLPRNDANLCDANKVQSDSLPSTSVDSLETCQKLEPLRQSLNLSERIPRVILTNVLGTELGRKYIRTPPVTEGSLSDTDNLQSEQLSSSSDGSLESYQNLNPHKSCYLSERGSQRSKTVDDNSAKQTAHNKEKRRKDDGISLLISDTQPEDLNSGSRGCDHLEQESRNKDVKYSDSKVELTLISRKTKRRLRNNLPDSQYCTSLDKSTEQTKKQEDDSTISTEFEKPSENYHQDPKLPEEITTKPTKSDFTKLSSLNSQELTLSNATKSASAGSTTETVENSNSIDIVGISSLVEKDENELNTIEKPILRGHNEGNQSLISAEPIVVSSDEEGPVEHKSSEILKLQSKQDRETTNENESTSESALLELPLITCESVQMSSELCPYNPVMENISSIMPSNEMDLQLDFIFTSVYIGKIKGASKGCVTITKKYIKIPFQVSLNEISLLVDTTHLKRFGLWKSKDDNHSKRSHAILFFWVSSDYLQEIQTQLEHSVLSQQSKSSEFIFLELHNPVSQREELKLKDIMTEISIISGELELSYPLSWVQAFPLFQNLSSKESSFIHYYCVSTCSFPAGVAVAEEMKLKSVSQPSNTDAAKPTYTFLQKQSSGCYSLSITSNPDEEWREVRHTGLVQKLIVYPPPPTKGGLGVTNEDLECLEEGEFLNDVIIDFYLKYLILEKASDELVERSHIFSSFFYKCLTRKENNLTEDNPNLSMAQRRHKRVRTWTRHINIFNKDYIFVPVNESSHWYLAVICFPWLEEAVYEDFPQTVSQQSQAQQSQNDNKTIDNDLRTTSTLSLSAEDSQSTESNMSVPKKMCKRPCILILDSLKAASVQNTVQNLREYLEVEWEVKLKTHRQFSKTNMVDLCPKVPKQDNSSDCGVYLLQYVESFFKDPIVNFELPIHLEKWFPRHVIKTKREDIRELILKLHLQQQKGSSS

Chain of Trypsin (P00761 whole entry): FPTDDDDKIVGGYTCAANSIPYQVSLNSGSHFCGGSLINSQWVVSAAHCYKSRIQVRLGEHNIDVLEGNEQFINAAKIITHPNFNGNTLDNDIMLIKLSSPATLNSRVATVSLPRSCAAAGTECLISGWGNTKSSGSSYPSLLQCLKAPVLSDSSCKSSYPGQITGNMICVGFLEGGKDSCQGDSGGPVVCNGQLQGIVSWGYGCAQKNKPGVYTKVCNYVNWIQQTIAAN
Chain of Delta-type opioid receptor (P41143 whole entry): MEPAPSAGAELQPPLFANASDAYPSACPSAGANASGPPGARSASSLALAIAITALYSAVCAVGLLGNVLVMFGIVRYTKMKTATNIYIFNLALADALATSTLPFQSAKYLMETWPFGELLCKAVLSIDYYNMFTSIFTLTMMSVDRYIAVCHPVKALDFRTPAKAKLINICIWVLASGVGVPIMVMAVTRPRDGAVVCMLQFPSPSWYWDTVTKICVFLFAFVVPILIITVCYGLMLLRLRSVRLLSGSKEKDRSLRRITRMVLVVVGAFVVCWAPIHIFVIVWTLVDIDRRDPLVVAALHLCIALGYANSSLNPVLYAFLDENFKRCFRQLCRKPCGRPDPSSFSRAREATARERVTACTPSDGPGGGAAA
Chain of Mu-type opioid receptor (P35372 whole entry): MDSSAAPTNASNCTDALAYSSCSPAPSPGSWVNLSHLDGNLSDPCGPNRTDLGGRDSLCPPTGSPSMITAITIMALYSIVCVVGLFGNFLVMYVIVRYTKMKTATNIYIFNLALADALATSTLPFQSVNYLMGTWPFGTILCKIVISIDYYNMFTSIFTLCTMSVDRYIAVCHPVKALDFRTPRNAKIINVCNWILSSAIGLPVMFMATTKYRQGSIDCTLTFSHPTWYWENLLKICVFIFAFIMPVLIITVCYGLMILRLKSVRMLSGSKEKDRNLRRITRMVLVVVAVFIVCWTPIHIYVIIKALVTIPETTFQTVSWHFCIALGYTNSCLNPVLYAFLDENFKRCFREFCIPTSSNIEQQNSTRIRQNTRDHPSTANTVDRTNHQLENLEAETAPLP
Chain of 5-hydroxytryptamine receptor 5A (P47898 whole entry): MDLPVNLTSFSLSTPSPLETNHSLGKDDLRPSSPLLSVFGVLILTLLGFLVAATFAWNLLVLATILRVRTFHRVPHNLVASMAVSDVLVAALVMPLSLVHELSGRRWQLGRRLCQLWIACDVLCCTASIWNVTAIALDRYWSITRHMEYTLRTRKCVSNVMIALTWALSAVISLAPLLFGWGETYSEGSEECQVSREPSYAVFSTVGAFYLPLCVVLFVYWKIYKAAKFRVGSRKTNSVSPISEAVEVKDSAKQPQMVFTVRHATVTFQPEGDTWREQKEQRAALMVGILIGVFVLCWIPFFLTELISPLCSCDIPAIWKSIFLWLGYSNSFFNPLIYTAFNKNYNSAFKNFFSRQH

| SMILES | AC50 (Trypsin) | AC50 (CAAX prenyl protease 2) | IC50 (Caspase-3) | IC50 [4] | IC50 [5] | IC50 [6] | further results |
| --- | --- | --- | --- | --- | --- | --- | --- |
| Cc1cc(C)n2cc(CSC3=NCCS3)nc2n1 | 8.5 µM (active) | 8.53 µM (active) | – | – | – | – | – |
| OC(c1cc(-c2ccc(Cl)cc2)nc2ccccc12)C1CCCCN1 (stereo not drawn) | – | – | – | – | – | – | EC50 (BJ): > 133 µM (inactive); AC50 (INS1): 12.2 µM (active) |
| CN(C)C(CN=C(S)Nc1cccc(Cl)c1)c1ccccc1 (stereo not drawn) | – | – | – | – | – | – | EC50 [1]: > 92.5 µM (inactive); EC50 (Mu-type opioid receptor): 4.64 µM (active); EC50 [2]: 596 nM (active); EC50 [3]: 11.5 µM (inactive) |
| CSc1ccc(/C=C/c2noc(-c3ccccc3O)n2)cc1 | – | – | 1.1 µM (active) | 1.3 µM (active) | 1.3 µM (active) | 1.3 µM (active) | – |
| Clc1ccccc1-c1nnc(/C=C/c2cccs2)o1 | – | – | 1.3 µM (active) | 2.01 µM (active) | 2.06 µM (active) | 1.96 µM (active) | – |
| CN(C)c1ccc(/C=N/NC(=O)C(O)c2ccc(Br)cc2)cc1 (stereo not drawn) | 2.8 µM (active) | 2.17 µM (active) | – | – | – | – | – |
